Test results: patent publication US10597388B2, “Pyridazinone herbicides” (FMC CORPORATION, priority 2014, dated 2020)

Assays:
Test in all cases: Test D controlled growth environment herbicide test, pre- and postemergence
Format in all cases: in vivo
[1] = test system: galium (catchweed bedstraw, Galium aparine)
Procedure, shortened: (§1)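 Pre-emergence: seeds sown in silt loam soil were sprayed with compound in a non-phytotoxic solvent mix containing surfactant. Post-emergence: plants at 2 to 18 cm (1- to 4-leaf stage) in peat moss/vermiculite medium got the same formulation. Visual 0–100 rating versus controls after 14 to 21 d.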

[2] = test system: wheat, winter (winter wheat, Triticum aestivum)
Procedure, shortened: as §1

[3] = test system: ryegrass, Italian (Italian ryegrass, Lolium multiflorum)
Procedure, shortened: as §1

[4] = test system: chamomile (scentless chamomile, Matricaria inodora)
Procedure, shortened: as §1

[5] = test system: oilseed rape (Brassica napus)
Procedure, shortened: as §1

[6] = test system: chickweed (common chickweed, Stellaria media)
Procedure, shortened: as §1

[7] = test system: windgrass (Apera spica-venti)
Procedure, shortened: as §1

[8] = test system: canarygrass (Phalaris minor)
Procedure, shortened: as §1

[9] = test system: foxtail, green (green foxtail, Setaria viridis)
Procedure, shortened: as §1

[10] = test system: deadnettle (henbit deadnettle, Lamium amplexicaule)
Procedure, shortened: as §1

[11] = test system: bromegrass, downy (downy bromegrass, Bromus tectorum)
Procedure, shortened: as §1

[12] = test system: lambsquarters (Chenopodium album)
Procedure, shortened: as §1

[13] = test system: buckwheat, wild (wild buckwheat, Polygonum convolvulus)
Procedure, shortened: as §1

[14] = test system: field violet (Viola arvensis)
Procedure, shortened: as §1

[15] = Postemergence, 31 g ai/ha, scale 0 to 100 (0 no effect, 100 complete control)
[16] = Postemergence, 125 g ai/ha, visual rating on scale 0 (no effect) to 100 (complete control), 14 to 21 d
[17] = Postemergence, 250 g ai/ha, scale 0 to 100 (0 no effect, 100 complete control)
[18] = Preemergence, 125 g ai/ha, scale 0 to 100 (0 no effect, 100 complete control)
[19] = Preemergence, 250 g ai/ha, scale 0 to 100, 0 no effect, 100 complete control
[20] = postemergence, 62 g ai/ha, scale 0 to 100, 0 no effect, 100 complete control
[21] = Preemergence, 62 g ai/ha, scale 0 to 100 (0 no effect, 100 complete control)

In the case of `CC(=O)Oc1c(C)nn(C)c(=O)c1-c1c(C)sc2ccc(Cl)cc12` [Compound 108], the “Galium plant response rating” value [1, 15] is reported as 90, the “Plant response rating, Galium” value [1, 16] is reported as 100 and the “Plant response rating, Galium” value [1, 17] is reported as 100. The “Plant response rating (scale of 0 to 100), Galium” value ([1]; Preemergence, 31 g ai/ha) was 60, the “Plant response rating (scale of 0 to 100), Galium” value ([1]; Preemergence, 62 g ai/ha) was 70 and the “Plant response rating, Galium” value [1, 18] was 95. For the same compound, the “Plant response rating, Galium” value [1, 19] was 100, the “Plant response rating, Galium” value [1, 20] was 95 and the “Wheat, Winter plant response rating” value [2, 15] was 10. For the same compound, the “Plant response rating, Wheat, Winter” value [2, 16] was 20, the “Plant response rating, Wheat, Winter” value [2, 17] was 20 and the “Plant response rating (scale of 0 to 100), Wheat, Winter” value ([2]; Preemergence, 31 g ai/ha) was 0. For the same compound, the “Plant response rating (scale of 0 to 100), Wheat, Winter” value ([2]; Preemergence, 62 g ai/ha) was 0, the “Plant response rating, Wheat, Winter” value [2, 18] was 10 and the “Plant response rating, Wheat, Winter” value [2, 19] was 30. For the same compound, the “Plant response rating, Wheat, Winter” value [2, 20] was 15, the “Ryegrass, Italian plant response rating” value [3, 15] was 90 and the “Plant response rating, Ryegrass, Italian” value [3, 16] was 95. For the same compound, the “Plant response rating, Ryegrass, Italian” value [3, 17] was 100, the “Plant response rating (scale of 0 to 100), Ryegrass, Italian” value ([3]; Preemergence, 31 g ai/ha) was 80 and the “Plant response rating (scale of 0 to 100), Ryegrass, Italian” value ([3]; Preemergence, 62 g ai/ha) was 98. For the same compound, the “Plant response rating, Ryegrass, Italian” value [3, 18] was 100, the “Plant response rating, Ryegrass, Italian” value [3, 19] was 100 and the “Plant response rating, Ryegrass, Italian” value [3, 20] was 90. The “Chamomile plant response rating” value [4, 15] was 75, the “Plant response rating, Chamomile” value [4, 16] was 95 and the “Plant response rating, Chamomile” value [4, 17] was 100. For the same compound, the “Plant response rating, Chamomile” value [4, 20] was 85, the “Oilseed Rape plant response rating” value [5, 15] was 45 and the “Plant response rating, Oilseed Rape” value [5, 16] was 75. The “Plant response rating, Oilseed Rape” value [5, 17] was 100, the “Plant response rating (scale of 0 to 100), Oilseed Rape” value ([5]; Preemergence, 31 g ai/ha) was 20 and the “Plant response rating (scale of 0 to 100), Oilseed Rape” value ([5]; Preemergence, 62 g ai/ha) was 45. For the same compound, the “Plant response rating, Oilseed Rape” value [5, 18] was 75, the “Plant response rating, Oilseed Rape” value [5, 19] was 40 and the “Plant response rating, Oilseed Rape” value [5, 20] was 70. For the same compound, the “Chickweed plant response rating” value [6, 15] was 90, the “Plant response rating, Chickweed” value [6, 16] was 100 and the “Plant response rating, Chickweed” value [6, 17] was 100. For the same compound, the “Plant response rating (scale of 0 to 100), Chickweed” value ([6]; Preemergence, 31 g ai/ha) was 100, the “Plant response rating (scale of 0 to 100), Chickweed” value ([6]; Preemergence, 62 g ai/ha) was 100 and the “Plant response rating, Chickweed” value [6, 18] was 100. The “Plant response rating, Chickweed” value [6, 19] was 100, the “Plant response rating, Chickweed” value [6, 20] was 100 and the “Windgrass plant response rating” value [7, 15] was 65. The “Plant response rating, Windgrass” value [7, 16] was 75, the “Plant response rating, Windgrass” value [7, 17] was 85 and the “Plant response rating (scale of 0 to 100), Windgrass” value ([7]; Preemergence, 31 g ai/ha) was 25. For the same compound, the “Plant response rating (scale of 0 to 100), Windgrass” value ([7]; Preemergence, 62 g ai/ha) was 50, the “Plant response rating, Windgrass” value [7, 18] was 75 and the “Plant response rating, Windgrass” value [7, 19] was 95. For the same compound, the “Plant response rating, Windgrass” value [7, 20] was 70, the “Canarygrass plant response rating” value [8, 15] was 40 and the “Plant response rating, Canarygrass” value [8, 16] was 80. The “Plant response rating, Canarygrass” value [8, 17] was 80, the “Plant response rating (scale of 0 to 100), Canarygrass” value ([8]; Preemergence, 31 g ai/ha) was 45 and the “Plant response rating (scale of 0 to 100), Canarygrass” value ([8]; Preemergence, 62 g ai/ha) was 80. The “Plant response rating, Canarygrass” value [8, 18] was 90, the “Plant response rating, Canarygrass” value [8, 19] was 95 and the “Plant response rating, Canarygrass” value [8, 20] was 50. The “Foxtail, Green plant response rating” value [9, 15] was 65, the “Plant response rating, Foxtail, Green” value [9, 16] was 75 and the “Plant response rating, Foxtail, Green” value [9, 17] was 95. For the same compound, the “Plant response rating (scale of 0 to 100), Foxtail, Green” value ([9]; Preemergence, 31 g ai/ha) was 30, the “Plant response rating (scale of 0 to 100), Foxtail, Green” value ([9]; Preemergence, 62 g ai/ha) was 90 and the “Plant response rating, Foxtail, Green” value [9, 18] was 100. The “Plant response rating, Foxtail, Green” value [9, 19] was 100, the “Plant response rating, Foxtail, Green” value [9, 20] was 70 and the “Deadnettle plant response rating” value [10, 15] was 35. For the same compound, the “Plant response rating, Deadnettle” value [10, 16] was 75, the “Plant response rating, Deadnettle” value [10, 17] was 90 and the “Plant response rating (scale of 0 to 100), Deadnettle” value ([10]; Preemergence, 31 g ai/ha) was 0. The “Plant response rating (scale of 0 to 100), Deadnettle” value ([10]; Preemergence, 62 g ai/ha) was 25, the “Plant response rating, Deadnettle” value [10, 18] was 95 and the “Plant response rating, Deadnettle” value [10, 19] was 100. For the same compound, the “Plant response rating, Deadnettle” value [10, 20] was 50, the “Bromegrass, Downy plant response rating” value [11, 15] was 25 and the “Plant response rating, Bromegrass, Downy” value [11, 16] was 40. For the same compound, the “Plant response rating, Bromegrass, Downy” value [11, 17] was 65, the “Plant response rating (scale of 0 to 100), Bromegrass, Downy” value ([11]; Preemergence, 31 g ai/ha) was 25 and the “Plant response rating, Bromegrass, Downy” value [11, 21] was 25. For the same compound, the “Plant response rating, Bromegrass, Downy” value [11, 18] was 70, the “Plant response rating, Bromegrass, Downy” value [11, 19] was 75 and the “Plant response rating, Bromegrass, Downy” value [11, 20] was 30. For the same compound, the “Lambsquarters plant response rating” value [12, 15] was 90, the “Plant response rating, Lambsquarters” value [12, 16] was 100 and the “Plant response rating, Lambsquarters” value [12, 17] was 100. For the same compound, the “Plant response rating (scale of 0 to 100), Lambsquarters” value ([12]; Preemergence, 31 g ai/ha) was 100, the “Plant response rating (scale of 0 to 100), Lambsquarters” value ([12]; Preemergence, 62 g ai/ha) was 100 and the “Plant response rating, Lambsquarters” value [12, 18] was 100. The “Plant response rating, Lambsquarters” value [12, 19] was 100, the “Plant response rating, Lambsquarters” value [12, 20] was 95 and the “Buckwheat, Wild plant response rating” value [13, 15] was 90. The “Plant response rating, Buckwheat, Wild” value [13, 16] was 100, the “Plant response rating, Buckwheat, Wild” value [13, 17] was 100 and the “Plant response rating (scale of 0 to 100), Buckwheat, Wild” value ([13]; Preemergence, 31 g ai/ha) was 0. The “Plant response rating, Buckwheat, Wild” value [13, 21] was 0, the “Plant response rating, Buckwheat, Wild” value [13, 18] was 20 and the “Plant response rating, Buckwheat, Wild” value [13, 19] was 35. The “Plant response rating, Buckwheat, Wild” value [13, 20] was 100, the “Field Violet plant response rating” value [14, 15] was 90 and the “Plant response rating, Field Violet” value [14, 16] was 100. The “Plant response rating, Field Violet” value [14, 17] was 100, the “Plant response rating (scale of 0 to 100), Field Violet” value ([14]; Preemergence, 31 g ai/ha) was 90 and the “Plant response rating (scale of 0 to 100), Field Violet” value ([14]; Preemergence, 62 g ai/ha) was 100. For the same compound, the “Plant response rating, Field Violet” value [14, 18] was 100, the “Plant response rating, Field Violet” value [14, 19] was 100 and the “Plant response rating, Field Violet” value [14, 20] was 95.
